In patent US10724099B2, “Multiplex methods to assay mixed cell populations simultaneously” (The Broad Institute, Inc., priority 2012, dated 2020):

Key:
JNK2 = biological target: T1, JNK2 (Homo sapiens, UniProt P45984); experiment: DiscoveRx KinomeScan binding; conditions: Entrez MAPK9
T1 construct: purchased DiscoveRx scanEDGE panel (KinomeScan)

MKNK1 = biological target: T2, MKNK1 (Homo sapiens, UniProt Q9BUB5); experiment: DiscoveRx KinomeScan binding
T2 construct: purchased DiscoveRx scanEDGE panel (KinomeScan)

PLK4 = biological target: T3, PLK4 (Homo sapiens, UniProt O00444); experiment: DiscoveRx KinomeScan binding
T3 construct: purchased DiscoveRx scanEDGE panel

PDPK1 = biological target: T4, PDPK1 (Homo sapiens, UniProt O15530); experiment: DiscoveRx KinomeScan binding
T4 construct: purchased DiscoveRx scanEDGE panel (KinomeScan)

PLK1 = biological target: T5, PLK1 (Homo sapiens, UniProt P53350); experiment: DiscoveRx KinomeScan binding
T5 construct: purchased DiscoveRx scanEDGE panel

AURKC = biological target: T6, AURKC (Homo sapiens, UniProt Q9UQB9); experiment: DiscoveRx KinomeScan binding
T6 construct: purchased DiscoveRx (KINOMEscan; added to the scanEDGE panel)

CSNK1G2 = biological target: T7, CSNK1G2 (Homo sapiens, UniProt P78368); experiment: DiscoveRx KinomeScan binding
T7 construct: purchased DiscoveRx scanEDGE panel

FGFR2 = biological target: T8, FGFR2 (Homo sapiens, UniProt P21802); experiment: DiscoveRx KinomeScan binding
T8 construct: purchased DiscoveRx scanEDGE panel

PKAC---alpha = biological target: T9, PKAC---alpha (Homo sapiens, UniProt P17612); experiment: DiscoveRx KinomeScan binding; conditions: Entrez PRKACA
T9 construct: purchased DiscoveRx scanEDGE panel

BRAF = biological target: T10, BRAF (Homo sapiens, UniProt P15056); experiment: DiscoveRx KinomeScan binding
T10 construct: purchased DiscoveRx (KINOMEscan scanEDGE panel)

ABL1---phosphorylated = biological target: T11, ABL1---phosphorylated (Homo sapiens, UniProt P00519); experiment: DiscoveRx KinomeScan binding; conditions: Entrez ABL1
T11 construct: purchased DiscoveRx (KINOMEscan scanEDGE panel)

RAF1 = biological target: T12, RAF1 (Homo sapiens, UniProt P04049); experiment: DiscoveRx KinomeScan binding
T12 construct: purchased DiscoveRx scanEDGE panel

TSSK1B = biological target: T13, TSSK1B (Homo sapiens, UniProt Q9BXA7); experiment: DiscoveRx KinomeScan binding
T13 construct: purchased DiscoveRx scanEDGE panel

YANK3 = biological target: T14, YANK3 (Homo sapiens, UniProt Q86UX6); experiment: DiscoveRx KinomeScan binding; conditions: Entrez STK32C
T14 construct: purchased DiscoveRx (KinomeScan scanEDGE panel service)

AXL = biological target: T15, AXL (Homo sapiens, UniProt P30530); experiment: DiscoveRx KinomeScan binding
T15 construct: purchased DiscoveRx (KINOMEscan scanEDGE panel)

HCT-116 cells = experiment: DNA content by propidium iodide flow cytometry; type: cell-based; conditions: 10 μM, 24 hours or 48 hours
Protocol: In addition, HCT-116 cells were treated with 10 μM of DMSO, or the Aurora Kinase Inhibitors barasertib, GSK1070916, MLN8054, BRD-7880, or tozasertib. 24 hours or 48 hours following treatment, cells were stained with propidium iodide and DNA content per cell was assessed using a Becton Dickinson LSR II flow cytometer.

PAK4 = biological target: T16, PAK4 (Homo sapiens, UniProt O96013); experiment: DiscoveRx KinomeScan binding
T16 construct: purchased DiscoveRx scanEDGE panel (KinomeScan)

EPHA2 = biological target: T17, EPHA2 (Homo sapiens, UniProt P29317); experiment: DiscoveRx KinomeScan binding
T17 construct: purchased DiscoveRx scanEDGE panel

PCTK1 = biological target: T18, PCTK1 (Homo sapiens, UniProt Q00536); experiment: DiscoveRx KinomeScan binding; conditions: Entrez CDK16
T18 construct: purchased DiscoveRx scanEDGE panel (KinomeScan)

EGFR(L858R) = biological target: T19, EGFR(L858R) (Homo sapiens, UniProt P00533, L858R); experiment: DiscoveRx KinomeScan binding
T19 construct: purchased DiscoveRx scanEDGE panel

BMPR2 = biological target: T20, BMPR2 (Homo sapiens, UniProt Q13873); experiment: DiscoveRx KinomeScan binding
T20 construct: purchased DiscoveRx (KINOMEscan scanEDGE panel)

PDGFRA = biological target: T21, PDGFRA (Homo sapiens, UniProt P16234); experiment: DiscoveRx KinomeScan binding
T21 construct: purchased DiscoveRx scanEDGE panel (KinomeScan)

KIT = biological target: T22, KIT (Homo sapiens, UniProt P10721); experiment: DiscoveRx KinomeScan binding
T22 construct: purchased DiscoveRx scanEDGE panel (KinomeScan)

PIM2 = biological target: T23, PIM2 (Homo sapiens, UniProt Q9P1W9); experiment: DiscoveRx KinomeScan binding
T23 construct: purchased DiscoveRx scanEDGE panel

BRAF(V600E) = biological target: T24, BRAF(V600E) (Homo sapiens, UniProt P15056, V600E); experiment: DiscoveRx KinomeScan binding
T24 construct: purchased DiscoveRx (KINOMEscan scanEDGE panel)

SNARK = biological target: T25, SNARK (Homo sapiens, UniProt Q9H093); experiment: DiscoveRx KinomeScan binding; conditions: Entrez NUAK2
T25 construct: purchased DiscoveRx scanEDGE panel

JNK3 = biological target: T26, JNK3 (Homo sapiens, UniProt P53779); experiment: DiscoveRx KinomeScan binding; conditions: Entrez MAPK10
T26 construct: purchased DiscoveRx scanEDGE panel (KinomeScan)

KIT(V559D,T670I) = biological target: T27, KIT(V559D,T670I) (Homo sapiens, UniProt P10721, T670I/V559D); experiment: DiscoveRx KinomeScan binding
T27 construct: purchased DiscoveRx scanEDGE panel (KinomeScan)

RET = biological target: T28, RET (Homo sapiens, UniProt P07949); experiment: DiscoveRx KinomeScan binding
T28 construct: purchased DiscoveRx scanEDGE panel

[1] = biological target: T29, ABL1(T315I)---phosphorylated (Homo sapiens, UniProt P00519, T315I); experiment: DiscoveRx KinomeScan binding; conditions: Entrez ABL1
T29 construct: purchased DiscoveRx (KINOMEscan scanEDGE panel)

ERBB2 = biological target: T30, ERBB2 (Homo sapiens, UniProt P04626); experiment: DiscoveRx KinomeScan binding
T30 construct: purchased DiscoveRx scanEDGE panel

p38---beta = biological target: T31, p38---beta (Homo sapiens, UniProt Q15759); experiment: DiscoveRx KinomeScan binding; conditions: Entrez MAPK11
T31 construct: purchased DiscoveRx scanEDGE panel (KinomeScan)

CDK7 = biological target: T32, CDK7 (Homo sapiens, UniProt P50613); experiment: DiscoveRx KinomeScan binding
T32 construct: purchased DiscoveRx (KINOMEscan scanEDGE panel)

PIK3C2B = biological target: T33, PIK3C2B (Homo sapiens, UniProt O00750); experiment: DiscoveRx KinomeScan binding
T33 construct: purchased DiscoveRx scanEDGE panel (KinomeScan)

CDK9 = biological target: T34, CDK9 (Homo sapiens, UniProt P50750); experiment: DiscoveRx KinomeScan binding
T34 construct: purchased DiscoveRx scanEDGE panel

PIK3CG = biological target: T35, PIK3CG (Homo sapiens, UniProt P48736); experiment: DiscoveRx KinomeScan binding
T35 construct: purchased DiscoveRx scanEDGE panel

BTK = biological target: T36, BTK (Homo sapiens, UniProt Q06187); experiment: DiscoveRx KinomeScan binding
T36 construct: purchased DiscoveRx (KINOMEscan scanEDGE panel)

JNK1 = biological target: T37, JNK1 (Homo sapiens, UniProt P45983); experiment: DiscoveRx KinomeScan binding; conditions: Entrez MAPK8
T37 construct: purchased DiscoveRx scanEDGE panel
T37 sequence (P45983 whole entry): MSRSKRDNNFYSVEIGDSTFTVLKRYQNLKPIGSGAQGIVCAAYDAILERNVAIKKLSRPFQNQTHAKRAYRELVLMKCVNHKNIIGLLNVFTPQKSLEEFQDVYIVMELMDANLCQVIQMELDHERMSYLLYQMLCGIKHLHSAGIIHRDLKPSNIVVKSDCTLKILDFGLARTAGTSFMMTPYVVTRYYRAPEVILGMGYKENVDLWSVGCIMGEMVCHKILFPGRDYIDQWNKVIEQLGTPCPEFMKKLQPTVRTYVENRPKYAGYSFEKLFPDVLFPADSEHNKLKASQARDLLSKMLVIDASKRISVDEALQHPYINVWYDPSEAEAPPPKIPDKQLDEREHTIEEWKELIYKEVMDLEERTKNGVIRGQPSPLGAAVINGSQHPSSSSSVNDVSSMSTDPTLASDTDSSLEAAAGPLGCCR

T6 sequence (Q9UQB9 whole entry): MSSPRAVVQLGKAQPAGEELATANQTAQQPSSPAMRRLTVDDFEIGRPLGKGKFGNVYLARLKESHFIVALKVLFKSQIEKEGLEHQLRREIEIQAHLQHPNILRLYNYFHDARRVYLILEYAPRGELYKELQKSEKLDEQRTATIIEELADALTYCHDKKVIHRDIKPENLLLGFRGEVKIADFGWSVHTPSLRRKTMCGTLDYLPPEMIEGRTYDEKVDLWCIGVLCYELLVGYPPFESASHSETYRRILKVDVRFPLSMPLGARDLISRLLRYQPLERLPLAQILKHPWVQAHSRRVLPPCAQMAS
T35 sequence (P48736 whole entry): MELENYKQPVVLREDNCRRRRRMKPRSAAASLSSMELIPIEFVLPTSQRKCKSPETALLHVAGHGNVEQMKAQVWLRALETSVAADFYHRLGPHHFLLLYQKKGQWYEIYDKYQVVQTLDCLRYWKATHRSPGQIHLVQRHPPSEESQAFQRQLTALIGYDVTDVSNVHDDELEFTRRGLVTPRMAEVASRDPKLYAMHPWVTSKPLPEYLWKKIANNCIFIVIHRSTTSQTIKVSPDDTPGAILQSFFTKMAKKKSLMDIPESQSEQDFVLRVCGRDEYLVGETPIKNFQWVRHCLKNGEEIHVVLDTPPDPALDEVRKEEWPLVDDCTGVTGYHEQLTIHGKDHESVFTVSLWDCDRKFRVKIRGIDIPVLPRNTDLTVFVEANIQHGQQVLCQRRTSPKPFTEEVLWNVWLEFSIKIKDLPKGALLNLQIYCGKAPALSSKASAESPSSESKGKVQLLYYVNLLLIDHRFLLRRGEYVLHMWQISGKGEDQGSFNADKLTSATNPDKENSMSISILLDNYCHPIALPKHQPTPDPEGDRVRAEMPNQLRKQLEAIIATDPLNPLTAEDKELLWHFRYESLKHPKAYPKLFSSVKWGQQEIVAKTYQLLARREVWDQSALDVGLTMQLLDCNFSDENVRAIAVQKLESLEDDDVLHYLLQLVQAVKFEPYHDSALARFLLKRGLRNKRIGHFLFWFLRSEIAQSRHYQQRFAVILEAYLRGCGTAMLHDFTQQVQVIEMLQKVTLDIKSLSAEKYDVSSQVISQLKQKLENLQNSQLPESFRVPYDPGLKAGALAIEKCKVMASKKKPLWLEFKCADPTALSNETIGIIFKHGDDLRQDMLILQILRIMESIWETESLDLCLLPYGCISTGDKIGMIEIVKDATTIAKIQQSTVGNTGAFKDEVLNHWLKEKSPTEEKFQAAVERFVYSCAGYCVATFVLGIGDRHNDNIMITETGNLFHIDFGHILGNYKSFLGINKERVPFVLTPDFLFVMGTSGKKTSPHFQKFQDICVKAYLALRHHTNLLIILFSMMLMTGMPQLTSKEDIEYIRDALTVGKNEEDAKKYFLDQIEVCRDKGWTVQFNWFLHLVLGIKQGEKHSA
T36 sequence (Q06187 whole entry): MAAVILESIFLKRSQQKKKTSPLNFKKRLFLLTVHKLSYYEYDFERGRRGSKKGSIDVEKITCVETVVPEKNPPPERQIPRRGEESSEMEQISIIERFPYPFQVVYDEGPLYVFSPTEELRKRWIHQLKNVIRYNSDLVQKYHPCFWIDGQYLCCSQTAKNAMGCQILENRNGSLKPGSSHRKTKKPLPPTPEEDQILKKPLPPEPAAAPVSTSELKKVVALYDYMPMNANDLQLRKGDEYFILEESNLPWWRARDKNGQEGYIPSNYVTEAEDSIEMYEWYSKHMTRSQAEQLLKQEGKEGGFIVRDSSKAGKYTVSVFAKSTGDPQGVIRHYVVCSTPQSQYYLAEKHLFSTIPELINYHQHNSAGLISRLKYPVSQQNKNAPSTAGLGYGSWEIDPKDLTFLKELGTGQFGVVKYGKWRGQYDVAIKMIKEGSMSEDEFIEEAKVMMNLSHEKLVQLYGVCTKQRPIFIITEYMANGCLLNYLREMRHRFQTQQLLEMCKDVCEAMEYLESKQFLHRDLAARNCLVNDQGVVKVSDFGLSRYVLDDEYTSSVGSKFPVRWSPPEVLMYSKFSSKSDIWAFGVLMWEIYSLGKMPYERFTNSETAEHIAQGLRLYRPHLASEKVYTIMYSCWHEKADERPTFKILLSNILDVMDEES
T12 sequence (P04049 whole entry): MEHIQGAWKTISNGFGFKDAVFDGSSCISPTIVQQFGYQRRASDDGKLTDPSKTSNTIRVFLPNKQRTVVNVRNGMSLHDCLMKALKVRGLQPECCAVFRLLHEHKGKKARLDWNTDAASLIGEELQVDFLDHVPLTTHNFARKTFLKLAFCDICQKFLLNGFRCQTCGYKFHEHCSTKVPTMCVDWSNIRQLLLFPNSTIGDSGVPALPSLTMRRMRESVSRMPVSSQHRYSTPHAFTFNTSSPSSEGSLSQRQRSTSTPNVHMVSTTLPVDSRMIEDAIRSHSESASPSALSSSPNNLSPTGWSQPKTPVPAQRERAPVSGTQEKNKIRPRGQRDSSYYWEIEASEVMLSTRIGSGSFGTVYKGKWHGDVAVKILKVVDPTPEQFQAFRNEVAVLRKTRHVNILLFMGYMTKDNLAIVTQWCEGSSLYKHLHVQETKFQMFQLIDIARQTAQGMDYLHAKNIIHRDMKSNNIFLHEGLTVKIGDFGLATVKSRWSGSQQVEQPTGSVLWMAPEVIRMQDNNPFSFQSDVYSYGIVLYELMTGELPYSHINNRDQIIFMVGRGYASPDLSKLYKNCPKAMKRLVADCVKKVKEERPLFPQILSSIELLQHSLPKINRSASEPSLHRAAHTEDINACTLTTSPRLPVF
T15 sequence (P30530 26-894): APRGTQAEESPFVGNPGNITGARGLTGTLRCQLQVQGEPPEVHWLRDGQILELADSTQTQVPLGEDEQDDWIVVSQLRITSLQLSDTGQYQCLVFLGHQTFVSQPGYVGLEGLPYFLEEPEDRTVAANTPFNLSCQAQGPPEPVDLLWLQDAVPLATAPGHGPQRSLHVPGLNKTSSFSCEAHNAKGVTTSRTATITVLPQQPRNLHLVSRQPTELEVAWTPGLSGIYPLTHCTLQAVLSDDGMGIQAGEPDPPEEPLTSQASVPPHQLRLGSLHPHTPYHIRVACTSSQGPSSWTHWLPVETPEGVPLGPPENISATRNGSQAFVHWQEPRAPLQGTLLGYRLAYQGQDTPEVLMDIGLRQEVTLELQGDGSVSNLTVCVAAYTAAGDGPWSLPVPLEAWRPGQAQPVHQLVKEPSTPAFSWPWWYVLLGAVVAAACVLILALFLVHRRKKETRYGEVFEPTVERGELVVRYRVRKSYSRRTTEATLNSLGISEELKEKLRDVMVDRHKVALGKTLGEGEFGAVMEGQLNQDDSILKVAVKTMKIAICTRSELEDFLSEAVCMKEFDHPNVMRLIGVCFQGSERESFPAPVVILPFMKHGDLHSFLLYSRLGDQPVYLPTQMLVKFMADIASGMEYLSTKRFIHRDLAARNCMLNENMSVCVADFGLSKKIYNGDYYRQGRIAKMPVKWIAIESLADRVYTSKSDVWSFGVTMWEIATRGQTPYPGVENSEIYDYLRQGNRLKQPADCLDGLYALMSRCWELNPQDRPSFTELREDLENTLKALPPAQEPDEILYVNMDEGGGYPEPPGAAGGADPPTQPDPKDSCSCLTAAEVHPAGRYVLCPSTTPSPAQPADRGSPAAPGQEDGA
T8 sequence (P21802 22-821): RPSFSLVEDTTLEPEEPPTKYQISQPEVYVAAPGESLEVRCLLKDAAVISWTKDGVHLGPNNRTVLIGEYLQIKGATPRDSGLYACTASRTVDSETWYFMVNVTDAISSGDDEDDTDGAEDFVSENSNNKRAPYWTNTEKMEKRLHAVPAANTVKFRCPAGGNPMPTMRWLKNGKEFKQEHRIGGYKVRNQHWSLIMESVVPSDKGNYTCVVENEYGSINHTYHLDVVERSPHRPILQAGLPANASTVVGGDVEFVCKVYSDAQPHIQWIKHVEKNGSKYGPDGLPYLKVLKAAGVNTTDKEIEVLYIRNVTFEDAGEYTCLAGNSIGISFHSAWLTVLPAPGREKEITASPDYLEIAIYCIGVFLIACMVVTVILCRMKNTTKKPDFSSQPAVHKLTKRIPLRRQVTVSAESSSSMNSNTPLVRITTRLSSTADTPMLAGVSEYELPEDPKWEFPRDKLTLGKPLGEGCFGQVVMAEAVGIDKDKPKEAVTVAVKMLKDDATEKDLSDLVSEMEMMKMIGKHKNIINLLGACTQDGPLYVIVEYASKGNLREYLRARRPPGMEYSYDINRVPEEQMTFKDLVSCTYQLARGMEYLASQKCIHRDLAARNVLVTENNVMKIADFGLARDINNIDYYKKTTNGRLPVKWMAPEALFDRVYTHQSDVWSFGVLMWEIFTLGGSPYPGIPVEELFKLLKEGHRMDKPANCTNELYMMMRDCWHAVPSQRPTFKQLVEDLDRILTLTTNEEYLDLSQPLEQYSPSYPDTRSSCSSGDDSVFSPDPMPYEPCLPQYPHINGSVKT

## COc1ccc(NC(=O)Nc2ccc3c(c2)C(=O)N([C@@H](C)CO)C[C@H](C)[C@H](CN(C)Cc2ccc4c(c2)OCO4)O3)cc1 [BRD-7880]
JNK2
  Percent Control: 89%
MKNK1
  Percent Control: 87%
PLK4
  Percent Control: 61%
PDPK1
  Percent Control: 48%
PLK1
  Percent Control: 39%
AURKC
  binding to aurora kinase C: 3 % of control
AURKC; AURKC
  Percent Control: 3%
CSNK1G2
  Percent Control: 100%
FGFR2
  Percent Control: 77%
PKAC---alpha
  Percent Control: 69%
BRAF
  Percent Control: 70%
ABL1---phosphorylated
  Percent Control: 88%
RAF1
  Percent Control: 100%
TSSK1B
  Percent Control: 57%
YANK3
  Percent Control: 91%
AXL
  Percent Control: 84%
HCT-116 cells
  DNA content per cell: increased DNA content
PAK4
  Percent Control: 100%
EPHA2
  Percent Control: 86%
PCTK1
  Percent Control: 95%
EGFR(L858R)
  Percent Control: 60%
BMPR2
  Percent Control: 100%
PDGFRA
  Percent Control: 90%
KIT
  Percent Control: 77%
PIM2
  Percent Control: 85%
BRAF(V600E)
  Percent Control: 65%
SNARK
  Percent Control: 72%
JNK3
  Percent Control: 70%
KIT(V559D,T670I)
  Percent Control: 100%
RET
  Percent Control: 100%
[1]
  Percent Control: 44%
ERBB2
  Percent Control: 100%
p38---beta
  Percent Control: 87%
CDK7
  Percent Control: 77%
PIK3C2B
  Percent Control: 96%
CDK9
  Percent Control: 90%
PIK3CG
  Percent Control: 100%
BTK
  Percent Control: 94%
JNK1
  Percent Control: 91%
